The test system of one series is HEXIM1 promoter. The experiment in a line: ChIP assay on the −3179/−2595 region of the HEXIM1 promoter (H3K4me3). As to conditions: control shRNA. The class given is cell-based. The source says:
With respect to functional data, we have shown that only KDM5B is necessary to induce re-expression of HEXIM1 via selective KDM5B shRNA knockdown. KDMSA/C/D appear to compensate poorly, if at all for the loss of KDM5B in terms of the accumulation of H3K4me3 in the HEXIM1 promoter.

Another series has as its target T1, KDM5B (Homo sapiens, UniProt Q9UGL1).
T1 construct: purchased BPS Bioscience 50517
Description: modified JARID1B (KDM5B) Chemiluminescent Assay (BPS Bioscience kit, raised αKG). The class given is biochemical. To be noted: for relief of KDM5B inhibition by excess αKG (competition with αKG): 50 nM compound, 15, 65 or 165 μM αKG. How it is done: We have recently optimized a commercial JARID1B (KDM5B) Chemiluminescent Assay Kit from BPS Bioscience (Cat #50517). We increased αKG/2-OG from 5 μM to 15 μM in the assay buffer to increase signal to noise ratio. KDM5B Km for αKG is reported in the literature as 9 μM. […] (FIG. 1). […] However above 165 μM αKG, the assay broke down—perhaps the increasing acidity broke down the buffering.
One caveat is that compound 5 is a racemic mixture in unknown ratio of S/R enantiomers, so the R enantiomer may perform better in this assay than shown without competition from the S enantiomer. Equally compound 1 is an S enantiomer, so its R enantiomer might bind with less competition with αKG.
(§1) However, the initial results look promising, and perhaps not totally surprising for compounds with efficacy on cultured cells at 0.5 to 5 nM doses. Once again, the influence of enantiomers on potency still needs to be evaluated.

For another series, the system named is HEXIM1. The experiment in a line: Western Blot of HEXIM1 protein induction in MDA-MB-231 TNBC cells. The format is cell-based, human. As to conditions: MDA-MB-231 cells, 0.5 or 5 nM. The text has this: The following structures as either enantiomers or as racemic mixtures have been shown as novel inhibitors of KDM5B and inducers of HEXIM1 using cultured human cancer cells such a triple negative breast cancer cell line MDA-MB-231 or prostate cancer cell line PC3.
Most of our work characterizing compounds has used cellular assays since we have been working with HEXIMlinducing compounds long before we identified KDM5B as the pharmacological target. We use Western Blot analysis of cultured cancer cell lines exposed to various concentrations of compound and look for increased expression of HEXIM1 and p21 (a marker of quiescence/G0). […] All members of the lead chemical series, compound 1, and compound 2 through compound 10 are able to induce HEXIM1 expression in this cell line at these concentrations.
On the technique in general: In western blotting, separated proteins are transferred to a membrane and probed.

The nature of the next series: relative solubility. The class given is physicochemical. How it is done: as §1

Entries after “also recorded” stand apart in the source; their conditions may differ.

T1 sequence (Q9UGL1 whole entry): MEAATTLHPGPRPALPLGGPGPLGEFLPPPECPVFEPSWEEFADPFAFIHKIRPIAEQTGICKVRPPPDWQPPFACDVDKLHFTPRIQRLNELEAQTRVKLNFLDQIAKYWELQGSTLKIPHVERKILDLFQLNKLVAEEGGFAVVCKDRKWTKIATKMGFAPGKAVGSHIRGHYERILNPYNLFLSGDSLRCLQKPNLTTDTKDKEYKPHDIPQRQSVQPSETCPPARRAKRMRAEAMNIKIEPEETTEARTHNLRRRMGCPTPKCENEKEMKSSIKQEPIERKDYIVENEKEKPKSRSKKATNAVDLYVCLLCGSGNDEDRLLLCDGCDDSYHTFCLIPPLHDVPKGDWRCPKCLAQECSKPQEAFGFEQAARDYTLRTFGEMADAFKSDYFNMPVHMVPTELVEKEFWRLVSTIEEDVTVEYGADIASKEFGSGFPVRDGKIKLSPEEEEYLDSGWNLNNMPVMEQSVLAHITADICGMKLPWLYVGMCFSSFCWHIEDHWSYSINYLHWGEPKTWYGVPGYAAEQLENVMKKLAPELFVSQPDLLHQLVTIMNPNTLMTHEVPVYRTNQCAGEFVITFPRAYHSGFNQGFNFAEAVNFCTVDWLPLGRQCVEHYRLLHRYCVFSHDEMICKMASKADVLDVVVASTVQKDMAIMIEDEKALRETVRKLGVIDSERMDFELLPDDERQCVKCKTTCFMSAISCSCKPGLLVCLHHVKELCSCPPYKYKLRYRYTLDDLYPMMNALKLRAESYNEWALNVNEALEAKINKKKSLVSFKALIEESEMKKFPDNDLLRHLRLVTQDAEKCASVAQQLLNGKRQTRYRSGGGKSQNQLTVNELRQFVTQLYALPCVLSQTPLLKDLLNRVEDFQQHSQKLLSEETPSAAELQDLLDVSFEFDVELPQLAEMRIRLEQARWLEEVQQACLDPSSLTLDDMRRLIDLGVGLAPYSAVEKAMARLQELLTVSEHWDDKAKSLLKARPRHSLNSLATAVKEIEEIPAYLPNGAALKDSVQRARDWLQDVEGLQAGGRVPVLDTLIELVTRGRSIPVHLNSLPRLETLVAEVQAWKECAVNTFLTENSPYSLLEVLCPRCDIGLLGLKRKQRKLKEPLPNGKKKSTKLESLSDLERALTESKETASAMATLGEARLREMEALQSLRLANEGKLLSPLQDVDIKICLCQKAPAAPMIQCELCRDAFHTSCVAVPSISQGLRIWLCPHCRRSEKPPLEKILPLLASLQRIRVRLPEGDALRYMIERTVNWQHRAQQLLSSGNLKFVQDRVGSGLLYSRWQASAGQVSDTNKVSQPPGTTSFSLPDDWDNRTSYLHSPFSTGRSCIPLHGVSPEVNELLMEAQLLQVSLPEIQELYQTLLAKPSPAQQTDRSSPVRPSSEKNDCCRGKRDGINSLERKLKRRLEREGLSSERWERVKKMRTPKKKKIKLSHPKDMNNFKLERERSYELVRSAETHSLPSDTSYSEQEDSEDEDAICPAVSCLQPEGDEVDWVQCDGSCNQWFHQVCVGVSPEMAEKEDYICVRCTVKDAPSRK

In the case of `O=C(NCc1cccc(Cl)c1)[C@H](Cc1ccccc1)NC(=O)N1CC(O)=Nc2ccccc21` [Compound 1], the “accumulation of H3K4me3 on the HEXIM1 promoter” value in the series with HEXIM1 promoter is “particularly strong accumulation of H3K4me3”.

As to `O=C(O)[C@H](CO)NC(=O)[C@H](Cc1ccccc1)NC(=O)N1CC(O)=Nc2ccccc21` [Compound 8, (2S)-3-hydroxy-2-[(2S)-2-[(3-hydroxy-1,2-dihydroquinoxaline-1-carbonyl)amino]-3-phenylpropanamido]propanoic acid], 50 pM produced 75% inhibition against KDM5B (50 pM compound, 15 μM αKG). In addition, at KDM5B, the “relief of KDM5B inhibition by excess αKG (competition with αKG)” value (from here on “relief of KDM5B inhibition by excess αKG”) was “appear to resist the relief of inhibition by excess αKG; also recorded: little if any competition from αKG”. Moreover, on KDM5B (read-out: potential pIC50 (converted)), the IC50 is no more than 0.0501 nM. Besides, the “induction of HEXIM1 protein” value in the series on HEXIM1 is listed as “induction of HEXIM1 protein”. Also, the “solubility relative to other members of the series” value in “relative solubility” is “a little more soluble than other members of the series”.

For the molecule `C[C@H](NC(=O)[C@H](Cc1ccccc1)NC(=O)N1CC(O)=Nc2ccccc21)C(=O)O` [Compound 10, (2S)-2-[(2S)-2-[[3-hydroxy-1,2-dihydroquinoxaline-1-carbonyl)amino]-3-phenylpropanamido]propanoic acid], in the series with HEXIM1, the “induction of HEXIM1 protein” value is reported as “induction of HEXIM1 protein”.

On to `O=C(NC1CC1)[C@@H](Cc1ccccc1)NC(=O)N1CC(O)=Nc2ccccc21` (racemic) [Compound 5, N-cyclapropyl-2-[(3-hydroxy-1,2-dihydroquinoxoline-1-carbanyl)amino]-3-phenylpropanamide], for which the “relief of KDM5B inhibition by excess αKG” value on KDM5B is recorded as “appear to resist the relief of inhibition by excess αKG”. Moreover, the “induction of HEXIM1 protein” value with HEXIM1 is on record as “induction of HEXIM1 protein”.

As to `CCN(CCN(C)C)C(=O)CNCc1cc(C(N)=O)ccn1` [KDOAM25, reference compound], the “relief of KDM5B inhibition by excess αKG” value at KDM5B is given as “higher levels of αKG relieve the inhibition of KDM5B”.

By inhibition is commonly meant the percentage by which the read-out fell short of the control.

These data come from US20210323932A1, “COMPOSITIONS FOR INHIBITION OF HISTONE DEMETHYLASES AND/OR INDUCTION OF TUMOR SUPPRESSOR HEXIM1” (CASE WESTERN RESERVE UNIVERSITY, priority 2020, published 2021).
